Experimental data taken from US7772255B2, “Method of treating tumors with azaxanthones” (Supratek Pharma, Inc., priority 2005, dated 2010).

Assays:
[1] = Chemical stability of Amlexanox sodium salt solution (HPLC); type: physicochemical; details: 20 mg Amlexanox sodium salt in 2 mL Tris buffer pH 7.2; 0.05 molar equivalent of the listed compound; 72 hours, ambient light, access to air; HPLC peak area
Description: 20 mg of crystalline Amlexanox sodium salt was dissolved in a clear glass test tube in 2 mL of Tris buffer, pH 7.2. For each of the stabilizing compounds listed in the Table below, 0.05 molar equivalent of the compound was added to the solution, mixed until dissolved, and left under ambient light, and with access to the air. Concentration of Amlexanox in the sample was determined by HPLC right after preparation, and after 72 hours. The chemical stability of Amlexanox was evaluated by comparison of area under the peak of amlexanox from the two analyses.

CSML100 cells = assay: S100A4-positive lung metastasis tumor model, alone or in combinations (Example 25); type: in vivo, mouse; details: CSML100 i.v. in A/J mice, mean±SEM
Description: Amlexanox solution for injections was prepared according to the Example 4. […] The animals were then divided randomly into 9 groups (n=9 except for control group): 1) intact control (n=13, saline); 2) Amlexanox (i.v. 100 mg/kg); 3) Amlexanox ([…]. 3 mg/kg); 5) Amlexanox ([…]. […] 10 mg/kg). […] The treatments were started on the day following the tumor cell implantation and continued for 10 consecutive days. […] The animal body weight was recorded as an index of treatment toxicity during the experiment. […] The data are expressed as mean±SEM for the number of metastatic sites on the lung surface.

B16F10/DX cells = assay: B16 experimental metastasis model (Example 26); type: in vivo, mouse; details: B16F10/DX i.v. in C57BL/6 mice; TPT 2.0 mg/kg i.v. on day 1, 4, and 7; mean±SEM
Description: Amlexanox solution for injections was prepared according to the Example 4. B16F10/DX cell (2.0×10^5 cells per animal) were inoculated intravenously in female C57BL//6 mice (6-7 weeks old) and animals were then divided randomly into 4 groups (n=9 except for control group): 1) intact control (n=12, saline); 2) Amlexanox (100 mg/kg, daily p.o. administration); 3) TPT (2.0 mg/kg i.v. administration on day 1, 4, and 7); 5) Amlexanox (daily p.o. 100 mg/kg)+TPT (i.v. 2.0 mg/kg on day 1, 4, and 7). Intact control received oral administration with 10 ml/kg (volume/body weight) of saline, while Amlexanox was administrated orally and daily with a dose of 100 mg/kg in a volume of 10 ml/kg. The treatments were started from the day following the tumor cell implantation until the end of the protocol. However, TPT was administrated intravenously only on day 1, 4, and 7 after tumor implantation. The animal body weight was recorded as an index of treatment toxicity during the experiment.
The data in Table show metastasis formation in the lung in the mice implanted with B16F10/DX cells. The data are expressed as mean±SEM for the number of metastatic sites on the lung surface.

Compound | Retained Amlexnox [1] | further results
O=C1O[C@H]([C@@H](O)CO)C(O)=C1O [Ascorbic acid] | 99.5% | 
Cn1c(=O)c2c(ncn2C)n(C)c1=O [Caffeine] | 96.8% | 
COc1cccc2c1C(=O)c1c(O)c3c(c(O)c1C2=O)C[C@@](O)(C(=O)CO)C[C@@H]3O[C@H]1C[C@H](N)[C@H](O)[C@H](C)O1 [Dox, doxorubicin] |  | Lung Metastasis Number per Animal (CSML100 cells; Dox i.v. 3 mg/kg on day 1, 4, 7): 15.6 ± 2.66
Cc1occc(=O)c1O [Maltol] | 99.6% | 
COC(=O)c1ccc(O)cc1 [Methyl 4-hydroxybenzoate] | 93.1% | 
CCCOC(=O)c1cc(O)c(O)c(O)c1 [Propyl galate] | 99.7% | 
CC[C@@]1(O)C(=O)OCc2c1cc1n(c2=O)Cc2cc3c(CN(C)C)c(O)ccc3nc2-1 [TPT, topotecan] |  | Lung Metastasis Number per Animal (B16F10/DX cells): 88.0 ± 8.79; Lung Metastasis Number per Animal (CSML100 cells; TPT i.v. 3 mg/kg on day 1, 4, 7): 6.20 ± 1.32
